The values below come from patent publication US20240408071A1, “NOVEL COMBINATION OF SEROTONIN RECEPTOR (5-HTR2B) ANTAGONIST AND AN IMMUNOMODULATOR AND CHEMOTHERAPEUTIC DRUGS FOR INHIBITION OF CANCER” (NATIONAL CENTRE FOR CELL SCIENCE, priority 2021, published 2024).

The subject of the experiment is MC38 cells. The experiment in a line: Cell cycle analysis of MC38 cells by propidium iodide staining (flow cytometry). Type of experiment: cell-based, mouse. Conditions: 48-hour stimulation; BW-723C86 50 μM, SB-215505 50 μM per FIG. 6 legend. The procedure: FIG. 6 depicts that 5-HTR2B signalling in colon cancer affects cell proliferation and viability: Colon cancer MC38 cells were treated with serotonin (100 μM), 5-HTR2B agonist (BW-723C86; 50 μM), or 5-HTR2B antagonist (SB-215505; 50 μM) for 48 hours, and cell cycle analysis was performed by propidium iodide staining using flow cytometry. MC38 cells were also treated with a graded dose of 5-HTR2B agonist (BW-723C86) or serotonin. MTT assay was performed to measure cell viability. (A) After treatment with 5-HTR2B agonist BW-723C86, serotonin, or 5-HTR2B antagonist SB-215505, the relative cell cycle analysis is shown. (B) Relative cell viability data of MC38 cells following treatment of graded doses of 5-HTR2B agonist BW-723C86 or serotonin are shown. The data shown are representative of one of the three independent experiments. (C) MC38 tumor sections from the control tumor and 5-HTR2B antagonist treated tumor were stained for CD31 and the number of CD31^+ micro-blood vessels/mm^2 of tissue sections was counted and plotted to observe angiogenesis. Error bar represents ±standard error of the mean (SEM).
MC38 cells were seeded in 6 well plates at a density of 5×10^4 cells/well. Cells were allowed to accommodate in the environment for 24 hours. The treatment with 5-HTR2B agonist (BW-723C86), Serotonin, and 5-HTR2B antagonist (RS-127445) was performed at different time points. […]
(In flow cytometry, cells or beads pass a laser one at a time.)

Each structure is given as a SMILES string.

As for `CC(N)Cc1c[nH]c2ccc(OCc3cccs3)cc12` (stereo not shown) [BW-723C86], the “percentage of MC38 cells in the S phase of the cell cycle” value is given as “increased percentage of cells in the S phase”.
